Key:
EGFR gene = test: Screening of SureKill guide RNAs in the EGFR gene for ability to induce indels; format: cell-based; settings: transfections of individual guide RNAs (spCas9 RNP); PDMR human lung adenocarcinoma cells with EGFR L858R; DECODR
Protocol: Human lung squamous cell carcinoma NCI-H1703 clone 44-25 cells were derived from NCI-H1703 cells (#CRL-5889) which were purchased from ATCC (Manassas, VA, USA). NCI-H1703 clone 44-25 cells contains R34G mutation (C 4 G) in NFE2L2 gene. H1703 clone 44-25 cells were cultured in ATCC formulation RPMI-1640 with 10% FBS. T75 flasks were used and cells were split 1:5 upon reaching 90% confluency. Human lung adenocarcinoma cells (Dist. Lot. No. LG0703-F948-PDC) were acquired from the National Institute of Health's National Cancer Institute's Patient-Derived Models Repository (PDMR). This PDMR cell line contains the L858R mutation (T 4 G) in the EGFR gene. The PDMR cells were maintained in Advanced DMEM/F12 media containing 10% FBS, 0.4 μg/mL hydrocortisone, 0.01 μg/mL EGF Recombinant Human Protein, 24 μg/mL adenine, and 2 mM L-Glutamine. T75s were used and cells were split 1:3 upon reaching 90% confluency. All cultures were maintained in cell culture incubators at 37° C. and 5% CO2.
Ribonucleoproteins (RNP) are complexed by incubating 250 pmol of purified synthetic gRNA (Synthego Corporation, Redwood City, CA) with 50 pmol of purified spCas9 (Synthego Corporation, Redwood City, CA) at room temperature in nuclease-free 1× TE buffer for 15 minutes.
Transfections were carried out using the Lonza Nuclefector 4d. Cultures in t75s at 90% confluence were split 1:2 24 hours prior to transfection. RNPs were complexed at 250:50 pmol for 30 minutes prior to transfection, during which time cells were harvested and counted. All reactions were 100 μL and contained 1 e6 cells. Lonza SF solution and Nucleofector program CM-130 were used in all transfections of the H1703 cell line. Lonza SE solution and Nucleofector program CA-137 were used in all transfections of the PDMR. After transfection, 500 μL of media that had been equilibrated to cell culture CO2 and temperature conditions was added to each 100 μL cuvettes. Cuvettes were then placed in the incubator. After 20 minutes, the entire content of each cuvette was seeded into 3 mL of media in a 6 well plate. After 72 hours, samples were dissociated using 200 μL Trypsin 0.25% for 5 minutes. 800 μL culture media was used to quench and split into 1.5 mL tubes each containing 500 μL of the sample. Tubes were spun at 300×g for 5 minutes. One of the tubes was placed in the −20° C. freezer and the other was resuspended in 500 μL of Trizol for RNA extraction and cDNA synthesis.
All sequencing was performed on the Applied Biosystems SeqStudio. The BigDye Terminator v3.1 Cycle Sequencing Kit was used to prepare samples for sequencing. Resulting sequences were analyzed with DECODR to determine indel rates (Bloh et al., CRISPR J. 4:120-31 (2021)).
Human EGFR is a frequently mutated gene that is associated with cancers. One of the most common mutations is L858R which results in the creation of a novel PAM site, making it a targetable sequence by CRISPR. Like the R34G mutation, the CRISPR designed to target the L858R mutation is not highly efficient on its own. By combining the L858R-targeting CRISPR with another CRISPR of high efficiency in a downstream intronic region, exon skipping can be induced, resulting in a higher efficiency of functional knockout than the L858R targeting CRISPR alone. To find a suitable gRNA to pair with the L858R targeting CRISPR, we selected the intron between exons 21 and 22 (FIG. 6). A series of gRNAs were created in this region and screened for their ability to induce indels, a measure of their activity using DECODR (Bloh et al., CRISPR J. 4:120-31 (2021)) (Table 3).
In Table 3, all sequences are listed from 5′ to 3′. Indel percent, a measure of CRISPR activity, is based on transfections of individual guide RNAs. All guide RNAs, with the exception of L858R, were designed in the intron between exons 21 and 22.

EGFR = test: cDNA PCR analysis of exon skipping / full-size transcript in EGFR; format: cell-based, Human; settings: intron-targeting gRNA paired with L858R targeting CRISPR, compared to L858R targeting CRISPR alone
Protocol: After CRISPR reactions, total RNA was prepared, and cDNA synthesized for PCR amplification of the target region from EGFR. PCR-amplified DNA was then analyzed by electrophoresis through a 1% agarose gel for 75 minutes at 80v. DNA was stained with SYBR Safe. Lanes 1 and 13: NEB 2 Log Ladder; Lane 2: Scrambled gRNA; Lane 3: EGFR 21-22 SureKill gRNA 11 alone; Lane 4: EGFR 21-22 SureKill gRNA 13 alone; Lane 5: EGFR 21-22 SureKill gRNA 16 alone; Lane 6: EGFR 21-22 SureKill gRNA 17 alone; Lane 7: EGFR 21-22 SureKill gRNA 19 alone; Lane 8: EGFR 21-22 SureKill gRNA 22 alone; Lane 9: EGFR 21-22 SureKill gRNA 23 alone; Lane 10: EGFR 21-22 SureKill gRNA 27 alone; Lane 11: EGFR 21-22 SureKill gRNA 28 alone; Lane 12: EGFR 21-22 SureKill gRNA 29 alone. On the left side of the image are markers indicating DNA size in bp.
After CRISPR reactions, total RNA was prepared, and cDNA synthesized for semi-quantitative PCR amplification of the target region from EGFR. PCR amplification was performed for 25 cycles. PCR-amplified DNA was then analyzed by electrophoresis through a 1% agarose gel for 75 minutes at 80v. DNA was stained with SYBR Safe. […]
Transfections were carried out using the Lonza Nuclefector 4d. […] RNPs were complexed at 250:50 pmol for 30 minutes prior to transfection, during which time cells were harvested and counted. […]

## EGFR 21-22 SureKill gRNA 28: EGFR intron 21-22 guide RNA GCAGCCTGGTCCCTGGTGTC, SEQ ID NO:51 (listed as DNA, chemistry not given here)
EGFR gene
  indel %: 97.6%
EGFR
  reduction in the full-size transcript (cDNA, semi-quantitative PCR 25 cycles): enhanced reduction in the full-size transcript
